Measurements published in PubChem BioAssay AID2060882 (Molecular Pharmacology Branch, DTP, NCI, 2025).

Test system: 898857-211-R-J1-PDC complex spheroids, growth % test/control
Assay: Anticancer human tumor 898857-211-R-J1-PDC patient-derived melanoma cell line growth inhibition [RAS]
Details: for IC50: curve of first compound; for viability, T/C: stronger effect = lower value
Procedure, shortened: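 Agents were tested in combination matrices in half-log decrements from a top concentration at or near clinical Cmax (10 microM if undetermined). Targets were multi-cell spheroids of tumour lines plus HUVEC and MSC stromal cells.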

[1] = second compound 0.000949 µM, first compound 0.0316 µM
[2] = second compound 0.000949 µM, first compound 0.1 µM
[3] = second compound 0.003 µM, first compound 0.0316 µM
[4] = second compound 0.003 µM, first compound 0.1 µM
[5] = second compound 0.00949 µM, first compound 0.0316 µM
[6] = second compound 0.00949 µM, first compound 0.1 µM
[7] = second compound 0.03 µM, first compound 0.0316 µM
[8] = second compound 0.03 µM, first compound 0.1 µM
[9] = second compound 0.0949 µM, first compound 0.0316 µM
[10] = second compound 0.0949 µM, first compound 0.1 µM
[11] = second compound 0.3 µM, first compound 0.0316 µM
[12] = second compound 0.3 µM, first compound 0.1 µM
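Note: spheroids exposed to compound for seven days before readout.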
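Throughout, for viability, T/C: 100% = DMSO vehicle control wells.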

Compound CC(C)n1nc(-c2ccc3oc(N)nc3c2)c2c(N)ncnc21 + CCn1c(-c2cccnc2C(C)OC)c2c3cc(ccc31)N1CCOC(CC(NC(=O)C(C(C)C)N(C)C(=O)C3(F)CCN(C(=O)C#CC(C)(C)N(C)C)CC3)C(=O)N3CCCC(N3)C(=O)OCC(C)(C)C2)C1 has an IC50 (second compound 0.000949 µM) of 0.0271 µM, an IC50 (second compound 0.003 µM) of 0.0238 µM and an IC50 (second compound 0.00949 µM) of 0.0238 µM. It also gave an IC50 (second compound 0.03 µM) of 0.021 µM, an IC50 (second compound 0.0949 µM) of 0.0151 µM and an IC50 (second compound 0.3 µM) of 0.00705 µM. It also gave a viability, T/C (second compound 0.000949 µM, first compound 0.000316 µM) of 107%, a viability, T/C (second compound 0.000949 µM, first compound 0.001 µM) of 91.6% and a viability, T/C (second compound 0.000949 µM, first compound 0.00316 µM) of 87.2%. The viability, T/C (second compound 0.000949 µM, first compound 0.01 µM) was 68.7%, the viability, T/C [1] was 46.4% and the viability, T/C [2] was 20.5%. It also gave a viability, T/C (second compound 0.003 µM, first compound 0.000316 µM) of 106%, a viability, T/C (second compound 0.003 µM, first compound 0.001 µM) of 90.9% and a viability, T/C (second compound 0.003 µM, first compound 0.00316 µM) of 78.8%. It also gave a viability, T/C (second compound 0.003 µM, first compound 0.01 µM) of 70%, a viability, T/C [3] of 44.8% and a viability, T/C [4] of 20.4%. For the same compound, the viability, T/C (second compound 0.00949 µM, first compound 0.000316 µM) was 99.1%, the viability, T/C (second compound 0.00949 µM, first compound 0.001 µM) was 99.2% and the viability, T/C (second compound 0.00949 µM, first compound 0.00316 µM) was 86.2%. The viability, T/C (second compound 0.00949 µM, first compound 0.01 µM) was 75.1%, the viability, T/C [5] was 41.3% and the viability, T/C [6] was 17.7%. It also gave a viability, T/C (second compound 0.03 µM, first compound 0.000316 µM) of 103%, a viability, T/C (second compound 0.03 µM, first compound 0.001 µM) of 86.9% and a viability, T/C (second compound 0.03 µM, first compound 0.00316 µM) of 79.9%. It also gave a viability, T/C (second compound 0.03 µM, first compound 0.01 µM) of 72.1%, a viability, T/C [7] of 36.8% and a viability, T/C [8] of 17%. It also gave a viability, T/C (second compound 0.0949 µM, first compound 0.000316 µM) of 89.1%, a viability, T/C (second compound 0.0949 µM, first compound 0.001 µM) of 87.2% and a viability, T/C (second compound 0.0949 µM, first compound 0.00316 µM) of 86.5%. The viability, T/C (second compound 0.0949 µM, first compound 0.01 µM) was 55.6%, the viability, T/C [9] was 35.5% and the viability, T/C [10] was 16.2%. It also gave a viability, T/C (second compound 0.3 µM, first compound 0.000316 µM) of 74.9%, a viability, T/C (second compound 0.3 µM, first compound 0.001 µM) of 64% and a viability, T/C (second compound 0.3 µM, first compound 0.00316 µM) of 61.1%. It also gave a viability, T/C (second compound 0.3 µM, first compound 0.01 µM) of 46.3%, a viability, T/C [11] of 30% and a viability, T/C [12] of 13.6%.

For C[C@@H](NC(=O)c1ncnc(N)c1Cl)c1ncc(C(=O)Nc2cc(C(F)(F)F)c(Cl)cn2)s1 + CCn1c(-c2cccnc2C(C)OC)c2c3cc(ccc31)N1CCOC(CC(NC(=O)C(C(C)C)N(C)C(=O)C3(F)CCN(C(=O)C#CC(C)(C)N(C)C)CC3)C(=O)N3CCCC(N3)C(=O)OCC(C)(C)C2)C1, the IC50 (second compound 0.000949 µM) was 3.86 µM, the IC50 (second compound 0.003 µM) was 2.55 µM and the IC50 (second compound 0.00949 µM) was 3.12 µM. It also gave an IC50 (second compound 0.03 µM) of 3.88 µM, an IC50 (second compound 0.0949 µM) of 3.03 µM and an IC50 (second compound 0.3 µM) of 1.97 µM. For the same compound, the viability, T/C [1] was 121%, the viability, T/C [2] was 114% and the viability, T/C (second compound 0.000949 µM, first compound 0.316 µM) was 112%. For the same compound, the viability, T/C (second compound 0.000949 µM, first compound 1 µM) was 83.5%, the viability, T/C (second compound 0.000949 µM, first compound 3.16 µM) was 56.2% and the viability, T/C (second compound 0.000949 µM, first compound 10 µM) was 27.5%. For the same compound, the viability, T/C [3] was 128%, the viability, T/C [4] was 105% and the viability, T/C (second compound 0.003 µM, first compound 0.316 µM) was 103%. For the same compound, the viability, T/C (second compound 0.003 µM, first compound 1 µM) was 66.4%, the viability, T/C (second compound 0.003 µM, first compound 3.16 µM) was 45.6% and the viability, T/C (second compound 0.003 µM, first compound 10 µM) was 28.8%. The viability, T/C [5] was 114%, the viability, T/C [6] was 120% and the viability, T/C (second compound 0.00949 µM, first compound 0.316 µM) was 111%. For the same compound, the viability, T/C (second compound 0.00949 µM, first compound 1 µM) was 81.3%, the viability, T/C (second compound 0.00949 µM, first compound 3.16 µM) was 52.1% and the viability, T/C (second compound 0.00949 µM, first compound 10 µM) was 27.9%. It also gave a viability, T/C [7] of 123%, a viability, T/C [8] of 116% and a viability, T/C (second compound 0.03 µM, first compound 0.316 µM) of 97.4%. For the same compound, the viability, T/C (second compound 0.03 µM, first compound 1 µM) was 83.7%, the viability, T/C (second compound 0.03 µM, first compound 3.16 µM) was 53.6% and the viability, T/C (second compound 0.03 µM, first compound 10 µM) was 26.6%. The viability, T/C [9] was 105%, the viability, T/C [10] was 100% and the viability, T/C (second compound 0.0949 µM, first compound 0.316 µM) was 87.2%. It also gave a viability, T/C (second compound 0.0949 µM, first compound 1 µM) of 66.7%, a viability, T/C (second compound 0.0949 µM, first compound 3.16 µM) of 51.7% and a viability, T/C (second compound 0.0949 µM, first compound 10 µM) of 24.9%. It also gave a viability, T/C [11] of 82.9%, a viability, T/C [12] of 87.9% and a viability, T/C (second compound 0.3 µM, first compound 0.316 µM) of 73.2%. It also gave a viability, T/C (second compound 0.3 µM, first compound 1 µM) of 62.5%, a viability, T/C (second compound 0.3 µM, first compound 3.16 µM) of 41.8% and a viability, T/C (second compound 0.3 µM, first compound 10 µM) of 21.3%.
